Laboratory results as given in paper PMC9264725 (European Journal of Medicinal Chemistry, 2022).
Where two headings read alike, the source gives them in different places.

Assays:
[1] = molecular target: M^Pro-eGFP ectopically expressed in 293T cells (Severe acute respiratory syndrome coronavirus 2, UniProt P0DTD1); assay: cell-based; format: cell-based, SARS-CoV-2
[2] = test system: SARS-CoV-2 USA-WA1/2020 strain; assay: Plaque reduction neutralization test in Vero E6 cells, USA-WA1/2020; format: cell-based; conditions: PRNT, three days
SARS-CoV-2 Delta strain = assay: Plaque reduction neutralization test in Vero E6 cells, Delta; format: cell-based; conditions: PRNT, three days
SARS-CoV-2 Beta strain = assay: Plaque reduction neutralization test in Vero E6 cells, Beta; format: cell-based; conditions: PRNT, three days
M^Pro = conditions: cited from earlier work
[3] = rats, oral administration; cited from earlier work
SARS-CoV-2 = conditions: read-out: EC50 as SARS-CoV-2 inhibitor; cited from earlier work

Molecule: CC(C)[C@H](NC(=O)NC(C)(C)C)C(=O)N[C@@H](CC1CC1)C(=O)N[C@H](C=O)C[C@@H]1CCNC1=O [MPI39]
- EC50 [1]: > 10 µM

Molecule: CC(C)(C)CC(=O)N[C@H](C(=O)N1C[C@H]2[C@@H]([C@H]1C(=O)N[C@H](C=O)C[C@@H]1CCNC1=O)C2(C)C)C(C)(C)C [MPI40]
- Antiviral EC50 [2]: no inhibition at all tested concentrations
- Antiviral EC50 (SARS-CoV-2 Delta strain): no inhibition at all tested concentrations
- Antiviral EC50 (SARS-CoV-2 Beta strain): no inhibition at all tested concentrations

Molecule: MPI8
- IC50 (M^Pro; read-out: IC50 (in vitro potency)): ~0.1 µM
- half-life [3]: 1.22 h
- EC50 (SARS-CoV-2): 0.03 µM

Molecule: CC(C)(C)OC(=O)N[C@H](C(=O)N1C[C@H]2[C@@H]([C@H]1C(=O)N[C@H](C=O)C[C@@H]1CCNC1=O)C2(C)C)C(C)(C)C [MPI43]
- in cellulo potency higher than MPI40 [1]: 20 fold

Molecule: CC(C)(C)NC(=O)N[C@H](C(=O)N1C[C@H]2[C@@H]([C@H]1C(=O)NC(CC1CCC1)C(=O)C(N)=O)C2(C)C)C(C)(C)C (stereo partly shown) [Boceprevir]
- IC50 (M^Pro; read-out: Enzymatic IC50, ref 15): 8 µM
- IC50 (M^Pro; read-out: Enzymatic IC50, ref 16): 4.2 ± 0.6 µM
